Results as given in US20210060016A1, “ANTICANCER AGENT” (JAPANESE FOUNDATION FOR CANCER RESEARCH, priority 2017, published 2021).

Experiments:
tankyrase-2 = molecular target: T1, tankyrase-2 (Homo sapiens, UniProt Q9H2K2); test: X-ray diffraction of tankyrase-2 crystal soaked with the compound; format: binding
T1 sequence (Q9H2K2 1-1166): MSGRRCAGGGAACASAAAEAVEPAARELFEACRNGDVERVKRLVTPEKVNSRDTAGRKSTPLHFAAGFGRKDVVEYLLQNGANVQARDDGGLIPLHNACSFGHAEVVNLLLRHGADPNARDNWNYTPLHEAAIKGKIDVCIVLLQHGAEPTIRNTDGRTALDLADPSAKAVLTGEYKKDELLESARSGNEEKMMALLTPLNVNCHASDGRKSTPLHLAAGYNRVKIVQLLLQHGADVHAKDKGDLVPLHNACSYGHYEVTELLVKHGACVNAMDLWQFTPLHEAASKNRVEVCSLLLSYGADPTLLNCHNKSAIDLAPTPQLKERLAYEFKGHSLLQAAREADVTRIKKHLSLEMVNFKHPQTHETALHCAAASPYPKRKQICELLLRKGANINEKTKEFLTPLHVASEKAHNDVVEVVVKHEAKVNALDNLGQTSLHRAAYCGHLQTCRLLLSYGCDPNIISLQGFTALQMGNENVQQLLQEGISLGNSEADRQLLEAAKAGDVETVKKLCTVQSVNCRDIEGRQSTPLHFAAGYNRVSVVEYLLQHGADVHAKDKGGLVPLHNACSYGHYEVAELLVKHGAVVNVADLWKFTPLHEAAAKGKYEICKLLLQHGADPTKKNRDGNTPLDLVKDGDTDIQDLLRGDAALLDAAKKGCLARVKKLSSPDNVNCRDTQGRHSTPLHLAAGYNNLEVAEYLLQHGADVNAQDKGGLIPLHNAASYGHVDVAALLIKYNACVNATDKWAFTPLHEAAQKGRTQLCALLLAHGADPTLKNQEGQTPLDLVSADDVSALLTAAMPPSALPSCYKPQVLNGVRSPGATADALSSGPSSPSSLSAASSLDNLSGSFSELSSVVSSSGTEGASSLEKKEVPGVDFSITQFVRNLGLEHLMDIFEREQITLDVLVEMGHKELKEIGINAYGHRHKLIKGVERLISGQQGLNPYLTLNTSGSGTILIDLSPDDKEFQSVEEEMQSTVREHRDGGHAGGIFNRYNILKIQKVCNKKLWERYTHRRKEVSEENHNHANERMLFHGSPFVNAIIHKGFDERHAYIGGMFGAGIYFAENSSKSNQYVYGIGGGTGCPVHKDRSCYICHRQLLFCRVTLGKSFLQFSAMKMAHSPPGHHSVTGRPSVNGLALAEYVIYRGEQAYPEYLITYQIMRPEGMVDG
Description: In the present invention, whether the tankyrase inhibitory compound is a nicotinamide-type compound or an adenosine-type compound can be determined by X-ray diffraction, more specifically a method in which a complex is crystallized from a mixed liquid of a tankyrase crystal prepared beforehand and the tankyrase inhibitory compound, and subjected to X-ray diffraction (soaking method), or a method in which a complex is crystallized from a mixed liquid having the tankyrase inhibitory compound coexisting with tankyrase in a state before the crystallization, and subjected to X-ray diffraction (co-crystallization). Whether the tankyrase inhibitory compound is a dual-type compound can be determined by preparing a crystal under any one of the above-described conditions, and performing X-ray diffraction.
X-ray diffraction data of a tankyrase-2 crystal soaked with the compound prepared in Compound Example 1 was measured with BL26B2 Beam Line in a large synchrotron radiation facility Spring-8 (Sayo-gun, Hyogo). The wavelength of the X-ray was 1.000 Å, and MX-225 (Rayonix, LLC) was used as a detector. The diffraction data was treated with XDS (Kabsch, 2010) and the CCP4 program (Winn et al., 2011).

[1] = test system: human colorectal cancer cell line COLO-320DM; test: MTT assay, combination of test compound and other anticancer agents; format: cell-based
Description: The ratio of residual cells in treatment of the human colorectal cancer cell line COLO-320DM with a combination of the compound prepared in each Compound Example (test compound or tankyrase inhibitory compound) and each of the anticancer agents was measured to evaluate the cell killing effect of the combination on the human colorectal cancer cell line COLO-320DM. The combinations of test compounds and anticancer agents are as follows.
(Example 8): combination of the compound prepared in Compound Example 5 and temozolomide, melphalan, gemcitabine, cytarabine (Ara-C), fluorouracil (5-FU), pemetrexed, mercaptopurine, methotrexate, irinotecan (SN-38), etoposide (VP-16), actinomycin D, daunorubicin, doxorubicin, bleomycin, mitoxantrone, oxaliplatin, carboplatin or cisplatin (Example 9): combination of the compound prepared in Compound Example 110 (G007-LK) and irinotecan (SN-38) (Example 10): combination of the compound prepared in Compound Example 11 and irinotecan (SN-38) (Example 11): combination of the compound prepared in Compound Example 19 and irinotecan (SN-38) (Example 12): combination of the compound prepared in Compound Example 101 and irinotecan (SN-38) (Example 13): combination of the compound prepared in Compound Example 1 and irinotecan (SN-38) (Example 14): combination of the compound prepared in Compound Example 113 and irinotecan (SN-38)
Commercially available compounds were used for temozolomide (manufactured by Sigma-Aldric), melphalan (manufactured by Signa-Aldrich), gemcitabine (Gemcitabine hydrochloride; manufactured by Sigma-Aldric), cytarabine (Cytosine β-D-arabinofuranoside (Ara-C); manufactured by Sigma-Aldrich), fluorouracil (5-Fluorouracil (5-FU); manufactured by Sigma-Aldrich), pemetrexed (Pemetrexed disodium heptahydrate; manufactured by Sigma-Aldrich), mercaptopurine (6-Mercaptopurine monohydrate; manufactured by Sigma-Aldrich), methotrexate (Methotrexate hydrate; manufactured by Sigma-Aldrich), irinotecan (7-Ethyl-10-hydroxycamptothecin (SN-38); manufactured by Sigma-Aldrich), etoposide (Etoposide (VP-16); manufactured by Enzo Life Sciences, Inc.), actinomycin D (manufactured by nacalai tesque), daunorubicin (Daunorubicin hydrochloride; Calbiochem), doxorubicin (Doxorubicin hydrochloride; manufactured by Sigma-Aldrich), bleomycin (Bleomycin sulfate; manufactured by Enzo Life Sciences, Inc.), mitoxantrone (Mitoxantrone dihydrochloride; manufactured by Sigma-Aldrich), oxaliplatin (manufactured by Sigma-Aldrich), carboplatin (manufactured by Sigma-Aldrich) and cisplatin (manufactured by Enzo Life Sciences, Inc.).
First, the human colorectal cancer cell line COLO-320DM was suspended in RPMI1640 medium (hereinafter, medium) containing inactivated 10% fetal bovine serum, and the cells were seeded in a 96-well microplate at 350 cells (75 μL) per well. The cells were subjected to stationary culture overnight in a CO2 incubator at 37° C. Thereafter, in Example 8, a medium (25 μL) containing a combination of the compound prepared in Compound Example 5 and each of the anticancer agents was added in triplicate in such a manner that the final concentrations of the test compound (compound prepared in Compound Example 5) were 0 nM or 30 nM and that the final concentrations of each anticancer agent were those shown in Table 14. In Examples 9 to 14, a medium (25 μL) containing a combination of the compound prepared in each of Compound Examples and each of the anticancer agents was added in triplicate in such a manner that the final concentrations of the test compound were 0 nM or those shown in FIGS. 9 to 14. As a control, 25 μL of a medium containing only dimethyl sulfoxide (DMSO) which is a solvent was added. […]

[2] = Examples 9 to 14, COLO-320DM: test compound added at the concentration shown in FIGS. 9 to 14 to irinotecan (SN-38), survival with only irinotecan = 100%

SMILES | binding pocket type by X-ray diffraction (tankyrase-2) | cell survival rate [1, 2] | cell survival rate ([1]; Example 8, COLO-320DM: test compound further added at 30 nM to each anticancer agent (temozolomide ... cisplatin), survival with only the anticancer agent = 100%)
O=c1[nH]c(N2CCC3(CC2)CN(CCO)c2cc(F)cc(F)c23)nc2c1CCCC2 [compound 1, 2-[4,6-Difluoro-1-(2-hydroxyethyl)spiro [indolin-3,4′-piperidin]-1′-yl]-5,6,7,8-tetrahydroquinazolin-4(3H)-one] | nicotinamide-type compound which binds to the nicotinamide binding pocket of tankyrase | about 50% | 
CN1CCN(c2cc(F)c3c(c2)N(C)C(=O)C32CCN(c3nc4c(c(=O)[nH]3)CCCN4C)CC2)CC1 [compound 5, 4-Fluoro-1-methyl-1′-(8-methyl-4-oxo-3,4,5,6,7,8-hexahydropyrido [2,3-d]pyrimidin-2-yl)-6-(4-methylpiperazin-1-yl)spiro [indolin-3,4′-piperidin]-2-one] |  |  | about 50%
CN1CCCc2c1nc(N1CCC3(CC1)C(=O)N(C)c1cc(N4CCC(C(=O)O)CC4)cc(F)c13)[nH]c2=O [compound 11, 1-[4-Fluoro-1-methyl-1′-(8-methyl-4-oxo-3,4,5,6,7,8-hexahydropyrido [2,3-d]pyrimidin-2-yl)-2-oxospiro[indolin-3,4′-piperidin]-6-yl]piperidin-4-carboxylic acid] |  | about 50% | 
C[C@@H]1CN(c2cc(F)c3c(c2)N(C)C(=O)C32CCN(c3nc4c(c(=O)[nH]3)CCCN4C)CC2)C[C@H](C)O1 [compound 19] |  | about 50% | 
